The test deals with T1, GCase (Cerezyme) (Homo sapiens, UniProt P04062, R534H).
T1 sequence (P04062 40-536 R534H): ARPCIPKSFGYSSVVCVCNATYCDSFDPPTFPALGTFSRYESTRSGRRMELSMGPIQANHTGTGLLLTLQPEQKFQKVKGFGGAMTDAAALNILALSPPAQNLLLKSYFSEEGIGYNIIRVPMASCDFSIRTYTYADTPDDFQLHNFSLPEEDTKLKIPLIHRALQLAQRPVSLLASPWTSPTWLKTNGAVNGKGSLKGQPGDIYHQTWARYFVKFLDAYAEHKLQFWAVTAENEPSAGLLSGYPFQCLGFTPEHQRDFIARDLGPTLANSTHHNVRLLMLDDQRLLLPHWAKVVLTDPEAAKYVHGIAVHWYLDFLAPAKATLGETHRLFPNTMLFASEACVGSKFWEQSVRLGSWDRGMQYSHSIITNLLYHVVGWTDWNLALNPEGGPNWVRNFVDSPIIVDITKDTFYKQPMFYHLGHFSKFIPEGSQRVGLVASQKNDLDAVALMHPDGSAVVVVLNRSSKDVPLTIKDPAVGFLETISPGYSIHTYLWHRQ
Nature of the test: SPR, immobilized GCase on CM5 chip. It counts as binding. Particulars: pH […] HEPES, […] EDTA, […] NaCl, […] Tween-20; no IFG; allosteric. In general terms: Surface plasmon resonance follows binding to a sensor surface in real time, without labels.

The Kd is a measure of binding affinity in units of concentration. A higher Kd goes with weaker binding.

GT-02287 registered a dissociation constant Kd of 17 to 24 µM.
The substance GT-02329 returned a Kd greater than 90 µM.

The values above are taken from paper doi:10.1101/2024.11.15.623779v1 (biorxiv, 2024).
